Our source for the GI50 and TGI values is PubChem BioAssay (NCI).

Test systems include MALME-3M melanoma; SNB-75 CNS; KM12 colon; UO-31 renal; UACC-257 melanoma; NCI-H522 lung; T-47D breast; OVCAR-3 ovarian; LOX IMVI melanoma; UACC-62 melanoma.
Assay in all cases: growth of human tumour cells (NCI), 48 h

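48-hour exposure; five concentrations; linearly interpolated endpoints. Abbreviation: GI50, concentration required for 50% inhibition of growth. The concentration for full growth arrest is given as TGI.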

Turning to `COc1cc2c(cc1O)c(=O)n(CCN(C)C)c1c3cc4c(cc3ncc21)OCO4`, the GI50 is 0.0291 µM in the assay on MALME-3M melanoma; below 0.0152 µM in the assay on SNB-75 CNS; 0.177 µM with KM12 colon; below 0.0124 µM in the assay with UO-31 renal; 0.0451 µM with UACC-257 melanoma; below 0.0104 µM in the assay on NCI-H522 lung. The GI50 in the assay on T-47D breast is below 0.01 µM; with OVCAR-3 ovarian it was 0.0388 µM; in the assay on LOX IMVI melanoma it was below 0.01 µM. Moreover, the TGI in the assay on MALME-3M melanoma was 0.192 µM; with SNB-75 CNS it was 0.315 µM; in the assay on UO-31 renal it was 0.17 µM; in the assay with UACC-257 melanoma, 0.285 µM; with NCI-H522 lung, 0.154 µM; with T-47D breast it was 0.0631 µM. For the same compound, the TGI with OVCAR-3 ovarian was 0.423 µM; in the assay on LOX IMVI melanoma, 0.0245 µM.

For `OCCN(CCO)c1nc(N2CCCCC2)c2nc(N(CCO)CCO)nc(N3CCCCC3)c2n1`, the TGI in the assay with MALME-3M melanoma was 46 µM; in the assay on KM12 colon, above 100 µM; in the assay on UO-31 renal it was above 100 µM; in the assay with UACC-257 melanoma it was above 100 µM; in the assay on NCI-H522 lung, 39.6 µM; with T-47D breast, above 100 µM. The results for the TGI in the assay on OVCAR-3 ovarian and in the assay on LOX IMVI melanoma were 32.6 µM and above 100 µM, respectively.

Regarding `CCC[CH2][Sn]1([CH2]CCC)[O]CC[S]1`, the GI50 is 0.299 µM with MALME-3M melanoma; 0.392 µM in the assay with UACC-62 melanoma; 0.61 µM with SNB-75 CNS; 1.19 µM in the assay on KM12 colon; 1.28 µM with UO-31 renal; 0.679 µM in the assay on UACC-257 melanoma. The GI50 is 0.041 µM with NCI-H522 lung, 0.848 µM in the assay with OVCAR-3 ovarian and 0.459 µM with LOX IMVI melanoma. Also, the TGI was found to be 1.39 µM in the assay on MALME-3M melanoma; 1.56 µM in the assay on UACC-62 melanoma; 1.92 µM with SNB-75 CNS; 3.02 µM with KM12 colon; 2.54 µM with UO-31 renal; 2.04 µM in the assay on UACC-257 melanoma. For the same compound, the TGI in the assay with NCI-H522 lung amounted to 0.187 µM; in the assay with OVCAR-3 ovarian it was 2.13 µM; in the assay with LOX IMVI melanoma it was 1.7 µM.

Consider `COc1c(C)c(OC)c(C(=O)CC(C)C)c(OC)c1C`, for which the TGI in the assay with MALME-3M melanoma, in the assay with UACC-62 melanoma, with KM12 colon, in the assay with UO-31 renal, with UACC-257 melanoma and in the assay on NCI-H522 lung was above 100 µM each time. Besides, the TGI with T-47D breast, in the assay with OVCAR-3 ovarian and in the assay with LOX IMVI melanoma was above 100 µM in each case.

In the case of `CS(=O)(=O)NNS(=O)(=O)c1ccc(F)cc1`, the TGI in the assay on MALME-3M melanoma, in the assay with UACC-62 melanoma, with SNB-75 CNS, in the assay with KM12 colon, with UO-31 renal and with UACC-257 melanoma was above 100 µM throughout. Besides, the TGI with NCI-H522 lung, in the assay with OVCAR-3 ovarian and in the assay with LOX IMVI melanoma was above 100 µM throughout.

As for `O=[N+]([O-])c1cc(I)cc(/C=N/NS(=O)(=O)c2ccc(Cl)cc2)c1O`, the TGI is 48.9 µM with MALME-3M melanoma; 57.6 µM with UACC-62 melanoma; 61.2 µM in the assay on SNB-75 CNS; 34.6 µM in the assay with KM12 colon; 36.8 µM in the assay with UO-31 renal; 53.9 µM in the assay on UACC-257 melanoma. Further, the TGI with NCI-H522 lung turned out to be 33.2 µM; in the assay with OVCAR-3 ovarian it was 36.1 µM; in the assay with LOX IMVI melanoma it was 36.5 µM.

With `COc1cc(/C=C2\NC(=O)C3Cc4c(OC)c(C)c(OC)c(OC)c4C2N3C)c(OC)c(C)c1OC` (stereo not given), the TGI in the assay on MALME-3M melanoma, with UACC-62 melanoma, in the assay with SNB-75 CNS, in the assay on KM12 colon, in the assay on UO-31 renal and with UACC-257 melanoma was above 100 µM in each case. The TGI with NCI-H522 lung, with OVCAR-3 ovarian and in the assay on LOX IMVI melanoma was above 100 µM in each case.

Take `CN(/N=C/c1ccccc1O)c1ccc2ccccc2n1`: the TGI was 47.8 µM in the assay with MALME-3M melanoma; above 100 µM in the assay with UACC-62 melanoma; 65.2 µM with KM12 colon; 35.2 µM in the assay with UO-31 renal; above 100 µM in the assay with UACC-257 melanoma; 80.9 µM with NCI-H522 lung. The TGI with T-47D breast is 50.4 µM; in the assay with OVCAR-3 ovarian, 34.7 µM; in the assay with LOX IMVI melanoma it was above 100 µM.

For `CCc1cccc(C(C)CC)c1NC(=O)C(=O)Cc1nc2ccccc2o1` (stereo not given), the TGI in the assay with MALME-3M melanoma, in the assay on UACC-62 melanoma, in the assay with SNB-75 CNS, in the assay on KM12 colon, in the assay with UO-31 renal and in the assay with UACC-257 melanoma was above 50 µM in each case. In addition, the TGI in the assay with NCI-H522 lung, in the assay on OVCAR-3 ovarian and with LOX IMVI melanoma was above 50 µM throughout.

With `CCN(CC)CCCNc1n[n+]([O-])c2ccccc2[n+]1[O-]`, the TGI in the assay on MALME-3M melanoma is 25.3 µM; with UACC-62 melanoma it was 26 µM; in the assay on SNB-75 CNS, 77.1 µM; in the assay on KM12 colon, 63 µM; in the assay on UO-31 renal it was above 100 µM; in the assay with UACC-257 melanoma, 54.7 µM. In addition, the TGI with NCI-H522 lung is 26.5 µM; in the assay with T-47D breast, 68.1 µM.

With `CC1SC2=NC3=C(c4ccccc4C3=O)C(c3ccccc3Cl)N2C1=O` (stereo not given), the TGI in the assay on MALME-3M melanoma, in the assay with UACC-62 melanoma, in the assay on SNB-75 CNS, with KM12 colon, in the assay on UO-31 renal and with UACC-257 melanoma was above 100 µM throughout. Also, the TGI with NCI-H522 lung is 96.3 µM; with OVCAR-3 ovarian, above 100 µM; with LOX IMVI melanoma, above 100 µM.

Consider `C[C@]12CCc3nonc3C1CC[C@@H]1C2CC[C@@]2(C)C1CC[C@@H]2O` (stereo not given in full), for which the TGI with MALME-3M melanoma, in the assay on UACC-62 melanoma, with SNB-75 CNS, in the assay on KM12 colon, in the assay on UO-31 renal and in the assay with UACC-257 melanoma was above 100 µM each time. For the same compound, the TGI in the assay on NCI-H522 lung, in the assay on OVCAR-3 ovarian and in the assay on LOX IMVI melanoma was above 100 µM in each case.

In the case of `FC(F)(F)c1cc(NC(=S)N2c3ccccc3-n3cccc3C2c2cccnc2)cc(C(F)(F)F)c1` (stereo not given), the TGI in the assay on MALME-3M melanoma amounted to 26.9 µM; with UACC-62 melanoma, 24.4 µM; in the assay on SNB-75 CNS it was 22.7 µM; in the assay on KM12 colon, 32 µM; in the assay with UO-31 renal it was 36.9 µM; in the assay on UACC-257 melanoma, 15.7 µM. Moreover, the results for the TGI in the assay with NCI-H522 lung, with T-47D breast and in the assay with OVCAR-3 ovarian were 13.7 µM, 26.2 µM and 9.47 µM, respectively. For the same compound, the GI50 with UACC-62 melanoma was 11.7 µM; with SNB-75 CNS, 7.07 µM; with KM12 colon, 8.9 µM; with UO-31 renal, 19.9 µM; in the assay on UACC-257 melanoma it was 3.9 µM; in the assay on NCI-H522 lung, 3.68 µM. For the same compound, the GI50 is 3.89 µM with T-47D breast and 3.01 µM in the assay with OVCAR-3 ovarian.
